Assay results as given in PubChem BioAssay AID2060905 (Molecular Pharmacology Branch, DTP, NCI, 2025).
Blank lines part the entries; values can stand above or below the molecule they belong to.

System: 282377-053-R-J1-PDC complex spheroid viability
Assay: Anticancer human tumor 282377-053-R-J1-PDC patient-derived colon adenocarcinoma cell line growth inhibition [RAS]
Conditions: for IC50: curve of first compound; for viability, T/C: stronger effect = lower value
Procedure, shortened: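 Agents were tested in combination matrices in half-log decrements from a top concentration at or near clinical Cmax (10 microM if undetermined). Targets were multi-cell spheroids of tumour lines plus HUVEC and MSC stromal cells.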

[1] = second compound 0.000949 µM, first compound 0.0316 µM
[2] = second compound 0.000949 µM, first compound 0.1 µM
[3] = second compound 0.000949 µM, first compound 0.316 µM
[4] = second compound 0.000949 µM, first compound 1 µM
[5] = second compound 0.000949 µM, first compound 3.16 µM
[6] = second compound 0.000949 µM, first compound 10 µM
[7] = second compound 0.003 µM, first compound 0.0316 µM
[8] = second compound 0.003 µM, first compound 0.1 µM
[9] = second compound 0.003 µM, first compound 0.316 µM
[10] = second compound 0.003 µM, first compound 1 µM
[11] = second compound 0.003 µM, first compound 3.16 µM
[12] = second compound 0.003 µM, first compound 10 µM
[13] = second compound 0.00949 µM, first compound 0.0316 µM
[14] = second compound 0.00949 µM, first compound 0.1 µM
[15] = second compound 0.00949 µM, first compound 0.316 µM
[16] = second compound 0.00949 µM, first compound 1 µM
[17] = second compound 0.00949 µM, first compound 3.16 µM
[18] = second compound 0.00949 µM, first compound 10 µM
[19] = second compound 0.03 µM, first compound 0.0316 µM
[20] = second compound 0.03 µM, first compound 0.1 µM
[21] = second compound 0.03 µM, first compound 0.316 µM
[22] = second compound 0.03 µM, first compound 1 µM
[23] = second compound 0.03 µM, first compound 3.16 µM
[24] = second compound 0.03 µM, first compound 10 µM
[25] = second compound 0.0949 µM, first compound 0.0316 µM
[26] = second compound 0.0949 µM, first compound 0.1 µM
[27] = second compound 0.0949 µM, first compound 0.316 µM
[28] = second compound 0.0949 µM, first compound 1 µM
[29] = second compound 0.0949 µM, first compound 3.16 µM
[30] = second compound 0.0949 µM, first compound 10 µM
[31] = second compound 0.3 µM, first compound 0.0316 µM
[32] = second compound 0.3 µM, first compound 0.1 µM
[33] = second compound 0.3 µM, first compound 0.316 µM
[34] = second compound 0.3 µM, first compound 1 µM
[35] = second compound 0.3 µM, first compound 3.16 µM
[36] = second compound 0.3 µM, first compound 10 µM
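Further: spheroids exposed to agents for seven days before readout.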
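Wherever viability, T/C is given: luminescence viability as percent of DMSO vehicle control wells.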

IC50 (second compound 0.000949 µM): 6.89 µM
IC50 (second compound 0.003 µM): 7.15 µM
IC50 (second compound 0.00949 µM): 7.05 µM
IC50 (second compound 0.03 µM): 6.9 µM
IC50 (second compound 0.0949 µM): 7.3 µM
IC50 (second compound 0.3 µM): 6.87 µM
SMILES: CC1(O)CCCC1n1c(=O)c(C(F)F)cc2cnc(NC3CCN(S(C)(=O)=O)CC3)nc21 (centres undefined) + CCn1c(-c2cccnc2C(C)OC)c2c3cc(ccc31)N1CCOC(CC(NC(=O)C(C(C)C)N(C)C(=O)C3(F)CCN(C(=O)C#CC(C)(C)N(C)C)CC3)C(=O)N3CCCC(N3)C(=O)OCC(C)(C)C2)C1
viability, T/C [1]: 118%
viability, T/C [2]: 112%
viability, T/C [3]: 171%
viability, T/C [4]: 144%
viability, T/C [5]: 159%
viability, T/C [6]: 6.67%
viability, T/C [7]: 129%
viability, T/C [8]: 128%
viability, T/C [9]: 140%
viability, T/C [10]: 131%
viability, T/C [11]: 218%
viability, T/C [12]: 8.84%
viability, T/C [13]: 122%
viability, T/C [14]: 97%
viability, T/C [15]: 153%
viability, T/C [16]: 156%
viability, T/C [17]: 199%
viability, T/C [18]: 8.76%
viability, T/C [19]: 105%
viability, T/C [20]: 111%
viability, T/C [21]: 153%
viability, T/C [22]: 159%
viability, T/C [23]: 165%
viability, T/C [24]: 7.79%
viability, T/C [25]: 121%
viability, T/C [26]: 120%
viability, T/C [27]: 201%
viability, T/C [28]: 181%
viability, T/C [29]: 214%
viability, T/C [30]: 5.91%
viability, T/C [31]: 111%
viability, T/C [32]: 129%
viability, T/C [33]: 146%
viability, T/C [34]: 155%
viability, T/C [35]: 158%
viability, T/C [36]: 6.46%

IC50 (second compound 0.000949 µM): 1.72 µM
IC50 (second compound 0.003 µM): 1.67 µM
IC50 (second compound 0.00949 µM): 1.76 µM
IC50 (second compound 0.03 µM): 1.85 µM
IC50 (second compound 0.0949 µM): 1.61 µM
IC50 (second compound 0.3 µM): 1.78 µM
SMILES: CCC(CC)c1cc(NC2CCC(N)C2)n2nccc2n1 (centres undefined) + CCn1c(-c2cccnc2C(C)OC)c2c3cc(ccc31)N1CCOC(CC(NC(=O)C(C(C)C)N(C)C(=O)C3(F)CCN(C(=O)C#CC(C)(C)N(C)C)CC3)C(=O)N3CCCC(N3)C(=O)OCC(C)(C)C2)C1
viability, T/C [1]: 98.1%
viability, T/C [2]: 105%
viability, T/C [3]: 81.3%
viability, T/C [4]: 87%
viability, T/C [5]: 8.86%
viability, T/C [6]: 3.59%
viability, T/C [7]: 86.3%
viability, T/C [8]: 105%
viability, T/C [9]: 79.4%
viability, T/C [10]: 81.4%
viability, T/C [11]: 10.8%
viability, T/C [12]: 3.49%
viability, T/C [13]: 114%
viability, T/C [14]: 93.9%
viability, T/C [15]: 99%
viability, T/C [16]: 89%
viability, T/C [17]: 9.93%
viability, T/C [18]: 2.98%
viability, T/C [19]: 81.2%
viability, T/C [20]: 111%
viability, T/C [21]: 102%
viability, T/C [22]: 95.3%
viability, T/C [23]: 10.7%
viability, T/C [24]: 4.2%
viability, T/C [25]: 96.8%
viability, T/C [26]: 110%
viability, T/C [27]: 89.8%
viability, T/C [28]: 77.4%
viability, T/C [29]: 11.2%
viability, T/C [30]: 4.78%
viability, T/C [31]: 112%
viability, T/C [32]: 90.2%
viability, T/C [33]: 95%
viability, T/C [34]: 87.6%
viability, T/C [35]: 12.6%
viability, T/C [36]: 4.08%
